{"source": "patent US20240417687A1", "about": "“THYMIC CELLS AND METHODS OF MAKING” (Thymmune Therapeutics, Inc., priority 2021, published 2024)", "test_system": "residual undifferentiated pluripotent cells", "experiment": "Teratoma formation after transplantation of TEP populations treated with YM155", "format": "in vivo", "conditions": "TEP population treated prior to transplantation versus not treated", "experimental": "An important safety issues to address in iPSC-derived cell therapy products was the possible presence of residual undifferentiated pluripotent cells in the end. Such iPSCs in the product can give rise to teratomas. […] YM155, a Survivin inhibitor and PluriSIn-1, a stearoyl-CoA desaturase inhibitor was tested.", "data": [{"smiles": "COCCn1c2c([n+](Cc3cnccn3)c1C)C(=O)c1ccccc1C2=O", "note": "[YM155]", "values": [{"measurement": "teratomas in vivo", "result": "smaller teratomas"}]}]}
